Laboratory results taken from PMC6698794, “Catalytic Knockdown of miR-21 by Artificial Ribonuclease: Biological Performance in Tumor Model” (Frontiers in Pharmacology, 2019).

Key:
[1] = Nuclease resistance assay in DMEM with 10% fetal bovine serum; type: in vitro ADME; conditions: 0.1 µg/µl, DMEM with 10% FBS, 37°C; 12% PAAG/8M urea gel, Stains-All
Experimental: Oligonucleotides or conjugates (0.1 µg/µl) were incubated at 37°C in Dulbecco’s Modified Eagle Medium (DMEM) (Sigma, USA) with 10% fetal bovine serum (FBS; GE Healthcare, USA). Reactions were quenched in urea (8M) and immediately frozen in liquid nitrogen, prior to analysis of thawed samples in 12% PAAG/8M urea gels, using Tris-Borate-EDTA (TBE) as running buffer, Stains-All (MP Biomedicals, USA) and photographic gel documentation (VilberLourmat, France).

PDCD4 = PDCD4 protein level in transfected RLS40 cells by Western blot; type: cell-based, mouse; conditions: 1 µM, 72 h after transfection, GAPDH internal control
Experimental: RLS40 ascites were taken from CBA mice intraperitoneally injected with tumor cells (2 × 10^6 in 0.2 ml buffered saline) into their abdominal cavities. RLS40 cells, isolated from ascites fluid by filtration through LSM were divided into seven portions: 1) untreated cells; 2) the cells incubated with Lipofectamine; the cells transfected with 1 µM of 3) h-ODN, 4) 2′-OMe, 5) Inh, 6) miR-21-miRNase, or 7) luc-POC each. After 4 h of transfection, cell suspensions (0.1 ml, 2 × 10^6 cells) were intramuscularly inoculated into the right lower limb of CBA mice for solid tumor development. As soon as tumors began to be palpable, the tumor volumes were measured every 2–3 days using calipers. Tumor volumes were calculated as V = (π/6 × length × width × height). Hepatic index was estimated as (liver weight/mouse weight) × 100% and as 5.0% for healthy CBA mice. Tumor doubling time (DT) was estimated as DT = (t − t0) × ln 2/(ln V − ln V0), where (t − t0) indicates the length of time between two measurements of tumor size and V0 and V denote the tumor volume at two points of the measurement ([Ozono et al., 2004]).
Supplementary Figure 3. Expression level of miR-21 and PTEN and PDCD4 protein level in RLS40 cells after transfection with 1 µM of luc-POC or miR-21-miRNase using LipofectamineTM 2000. (A) Expression level of miR-21 24 h after transfection. The expression of miRNAs was normalized to U6. […]

lymphosarcoma cells = conditions: ref Patutina et al., 2017a; cited from earlier work
Source text: Short functional non-coding microRNAs are implicated in many types of cancer ([Frixa et al., 2015]; [O’Bryan et al., 2017]; [Zhou et al., 2017]). Amongst many miRNAs identified as important inducers of oncogenesis, miR-21 represents an extreme oncomiR, which is strongly involved in tumor onset and progression for many types of malignancies ([Huang et al., 2013]; [Lianidou et al., 2016]; [Yu et al., 2018]). Since miR-21 is abnormally overexpressed in major types of tumors, this oncomiR is the most considered target for anti-miRNA inhibitory studies. However, depending on the origin of tissue an ...

| Substance | Survival (intact) in serum-containing medium [1] | Increase in PDCD4 protein level (PDCD4) [fold] | Inhibition of tumor cell proliferation (lymphosarcoma cells) [%] |
| --- | --- | --- | --- |
| h-ODN: miR-21-targeted hairpin deoxyribooligonucleotide AGTCTGATAAGCTACAAGTCAGCGAAAGCTGACTTG, unconjugated with the peptide (DNA, backbone and methylation of C not given here; hairpin at 3' end, unconjugated) | a few hours | – | – |
| acetyl-[(LeuArg)2Gly]2-aminohexyl-AGTCTGATAAGCTACAAGTCAGCGAAAGCTGACTTG [miR-21-miRNase, peptide acetyl-[(LeuArg)2Gly]2 conjugated through aminohexyl linker to 5′-end of miR-21-targeted hairpin oligodeoxyribonucleotide] | – | 2.4 | 50 |
